Measured values from the supplement of paper PMC13207355.

Experiments:
Settings in all cases: exposure time: 72 h
E13 [1] = patient-derived glioblastoma stem cells of classical subtype; test: surviving fraction (nuclei count normalised to DMSO); higher = more cells surviving (less toxic)
E21 [2] = patient-derived glioblastoma stem cells of mesenchymal subtype; test: as above
E28 [3] = patient-derived glioblastoma stem cells of classical subtype; test: as above
E31 [4] = patient-derived glioblastoma stem cells of proneural subtype; test: as above
E34 [5] = patient-derived glioblastoma stem cells of proneural subtype; test: as above
E57 [6] = patient-derived glioblastoma stem cells of mesenchymal subtype; test: as above
FT3469 [7] = normal neural stem cell line; test: as above
E13 [8] = test: phenotypic distance (Euclidean, principal components) from DMSO controls (arbitrary units); higher = stronger morphological change
E21 [9] = test: as above
E28 [10] = test: as above
E31 [11] = test: as above
E34 [12] = test: as above
E57 [13] = test: as above
FT3469 [14] = test: as above
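For phenotypic distance (Euclidean, principal components) from DMSO controls in this document: cell Painting imaging in 384-well plates, CellProfiler features reduced to at least 20 principal components, Euclidean distance versus same-plate DMSO vehicle wells (0.1% v/v), median over six images per well.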
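For surviving fraction (nuclei count normalised to DMSO) in this document: nuclei counted by high-content imaging of Hoechst-stained cells in laminin-coated 384-well plates, relative to 0.1% DMSO vehicle wells, with staurosporine as cell-death control.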

Cc1nc2ccccn2c(=O)c1CCN1CCC(C(=O)c2ccc(F)cc2)CC1 [Pirenperone]
Settings | phenotypic distance | surviving fraction
E13 [1], 4.1 nM | – | 0.987
E13 [1], 12.3 nM | – | 1.07
E13 [1], 37 nM | – | 1.13
E13 [1], 111.1 nM | – | 1.14
E13 [1], 333.3 nM | – | 1.06
E13 [1], 1000 nM | – | 1.02
E13 [1], 3000 nM | – | 1.02
E13 [8], 4.1 nM | 0.486 | –
E13 [8], 12.3 nM | 0.42 | –
E13 [8], 37 nM | 0.709 | –
E13 [8], 111.1 nM | 0.86 | –
E13 [8], 333.3 nM | 0.944 | –
E13 [8], 1000 nM | 0.709 | –
E13 [8], 3000 nM | 2.42 | –
E21 [2], 4.1 nM | – | 1.08
E21 [2], 12.3 nM | – | 0.974
E21 [2], 37 nM | – | 1.12
E21 [2], 111.1 nM | – | 1.01
E21 [2], 333.3 nM | – | 1.11
E21 [2], 1000 nM | – | 1.12
E21 [2], 3000 nM | – | 0.984
E21 [9], 4.1 nM | 1 | –
E21 [9], 12.3 nM | 0.656 | –
E21 [9], 37 nM | 0.874 | –
E21 [9], 111.1 nM | 0.825 | –
E21 [9], 333.3 nM | 0.769 | –
E21 [9], 1000 nM | 0.729 | –
E21 [9], 3000 nM | 0.884 | –
E28 [3], 4.1 nM | – | 1.05
E28 [3], 12.3 nM | – | 0.977
E28 [3], 37 nM | – | 1.16
E28 [3], 111.1 nM | – | 0.995
E28 [3], 333.3 nM | – | 1.08
E28 [3], 1000 nM | – | 1.07
E28 [3], 3000 nM | – | 0.988
E28 [10], 4.1 nM | 0.892 | –
E28 [10], 12.3 nM | 0.572 | –
E28 [10], 37 nM | 0.636 | –
E28 [10], 111.1 nM | 0.966 | –
E28 [10], 333.3 nM | 0.52 | –
E28 [10], 1000 nM | 0.489 | –
E28 [10], 3000 nM | 0.806 | –
E31 [4], 4.1 nM | – | 1.02
E31 [4], 12.3 nM | – | 0.878
E31 [4], 37 nM | – | 0.945
E31 [4], 111.1 nM | – | 0.874
E31 [4], 333.3 nM | – | 0.886
E31 [4], 1000 nM | – | 0.857
E31 [4], 3000 nM | – | 0.912
E31 [11], 4.1 nM | 0.618 | –
E31 [11], 12.3 nM | 0.402 | –
E31 [11], 37 nM | 0.608 | –
E31 [11], 111.1 nM | 0.551 | –
E31 [11], 333.3 nM | 0.266 | –
E31 [11], 1000 nM | 0.44 | –
E31 [11], 3000 nM | 0.761 | –
E34 [5], 4.1 nM | – | 1.22
E34 [5], 12.3 nM | – | 1.22
E34 [5], 37 nM | – | 1.06
E34 [5], 111.1 nM | – | 0.912
E34 [5], 333.3 nM | – | 0.91
E34 [5], 1000 nM | – | 1.01
E34 [5], 3000 nM | – | 1.15
E34 [12], 4.1 nM | 0.796 | –
E34 [12], 12.3 nM | 0.78 | –
E34 [12], 37 nM | 0.668 | –
E34 [12], 111.1 nM | 0.579 | –
E34 [12], 333.3 nM | 0.636 | –
E34 [12], 1000 nM | 0.719 | –
E34 [12], 3000 nM | 0.659 | –
E57 [6], 4.1 nM | – | 1.07
E57 [6], 12.3 nM | – | 1.08
E57 [6], 37 nM | – | 1.08
E57 [6], 111.1 nM | – | 1.02
E57 [6], 333.3 nM | – | 1.03
E57 [6], 1000 nM | – | 1.03
E57 [6], 3000 nM | – | 0.881
E57 [13], 4.1 nM | 0.572 | –
E57 [13], 12.3 nM | 0.766 | –
E57 [13], 37 nM | 2.84 | –
E57 [13], 111.1 nM | 0.668 | –
E57 [13], 333.3 nM | 0.553 | –
E57 [13], 1000 nM | 0.431 | –
E57 [13], 3000 nM | 1.17 | –
FT3469 [7], 4.1 nM | – | 0.92
FT3469 [7], 12.3 nM | – | 0.976
FT3469 [7], 37 nM | – | 1.17
FT3469 [7], 111.1 nM | – | 1.11
FT3469 [7], 333.3 nM | – | 1.12
FT3469 [7], 1000 nM | – | 1.05
FT3469 [7], 3000 nM | – | 1.19
FT3469 [14], 4.1 nM | 0.618 | –
FT3469 [14], 12.3 nM | 0.837 | –
FT3469 [14], 37 nM | 0.619 | –
FT3469 [14], 111.1 nM | 0.898 | –
FT3469 [14], 333.3 nM | 0.764 | –
FT3469 [14], 1000 nM | 0.995 | –
FT3469 [14], 3000 nM | 1.03 | –
